The results in this text go back to US8236845B2, “Heterocyclyl-substituted-tetrahydro-naphthalen-amine derivatives, their preparation and use as medicaments” (Laboratorios del Dr. Esteve, S.A., priority 2007, dated 2012).

Where a name gives a salt, the structure may show the parent alone.

In this experiment the target is T1, Cloned Human Serotonin Receptor, Subtype 7 (h5HT7) (Homo sapiens, UniProt P34969).
T1 construct: purchased PerkinElmer 6120512; host or cells: CHO cells (membranes coated on Basic FlashPlate, Cat. SMP200)
The experiment is described as follows: Radioligand binding assay, [125I]LSD, cloned human 5-HT7 receptor expressed in CHO cells. The conditions noted are these: radioligand [125I]LSD 0.82 nM. As for the experimental part: Radioligand binding assays were performed using the Cloned Human Serotonin Receptor, Subtype 7 (h5HT7), expressed in CHO cells, coated on Flashplate (Basic FlashPlate Cat.: SMP200) from PerkinElmer (Cat.: 6120512). The protocol assay was essentially the recommended protocol in the Technical Data Sheet by PerkinEmer Life and Analytical Sciences. The Mass membrane protein/well was typically 12 μg and the Receptor/well was about 9-10 fmoles. The Flashplate were let equilibrate at room temperature for one hour before the addition of the components of the assay mixture. The binding buffer was: 50 mM Tris-HCl, pH 7.4, containing 10 mM MgCl2, 0.5 mM EDTA and 0.5% BSA. The radioligand was [^125I]LSD at a final concentration of 0.82 nM. Nonspecific binding was determined with 50 μM of Clozapine. The assay volume was 25 μl. TopSeal-A were applied onto Flashplate microplates and they were incubated at room temperature for 240 minutes in darkness. The radioactivity were quantified by liquid scintillation spectrophotometry (Wallac 1450 Microbeta Trilux) with a count delay of 4 minutes prior to counting and a counting time of 30 seconds per well. Competition binding data were analyzed by using the LIGAND program (Munson and Rodbard, LIGAND: A versatile, computerized approach for characterization of ligand-binding systems. Anal. Biochem. 107: 220-239, 1980) and assays were performed in triplicate determinations for each point.

T1 sequence (P34969 whole entry): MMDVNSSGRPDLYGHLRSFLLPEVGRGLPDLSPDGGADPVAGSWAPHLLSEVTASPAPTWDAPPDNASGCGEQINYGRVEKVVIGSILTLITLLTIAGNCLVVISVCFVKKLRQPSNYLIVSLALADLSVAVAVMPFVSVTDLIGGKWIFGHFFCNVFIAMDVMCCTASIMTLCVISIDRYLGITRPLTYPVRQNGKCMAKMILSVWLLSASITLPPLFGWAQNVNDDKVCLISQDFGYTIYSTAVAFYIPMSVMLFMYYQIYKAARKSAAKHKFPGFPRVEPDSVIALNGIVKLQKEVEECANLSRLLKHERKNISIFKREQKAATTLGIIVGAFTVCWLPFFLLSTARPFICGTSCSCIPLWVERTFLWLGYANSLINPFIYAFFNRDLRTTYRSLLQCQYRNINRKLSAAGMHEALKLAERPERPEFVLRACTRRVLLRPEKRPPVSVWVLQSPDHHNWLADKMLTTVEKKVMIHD

Take `CCCN(C(C)C)[C@H]1CCc2c(cccc2-c2c(C)nn(C)c2C)C1` [AC, (2S)-Isopropyl-propyl-[5-(1,3,5-trimethyl-1H-pyrazol-4-yl)-1,2,3,4-tetrahydro-naphthalen-2-yl]-amine]: the Ki came to 227 ± 11.3 nM. The compound `COc1ccccc1-c1cccc2c1CCC(N(C)C)C2` (centres unmarked) [AF, [5-(2-Methoxy-phenyl)-1,2,3,4-tetrahydro-naphthalen-2-yl]-dimethyl-amine] yielded a Ki of 25.8 ± 4.6 nM. As for `COc1cccc(Cl)c1-c1cccc2c1CCC(N(C)C)C2` (centres unmarked) [AH, [5-(2-Chloro-6-methoxy-phenyl)-1,2,3,4-tetrahydro-naphthalen-2-yl]-dimethyl-amine], the Ki amounted to 11.6 ± 3 nM. Same read-out and setting: in the case of `COc1ncccc1-c1cccc2c1CCC(N(C)C)C2` (centres unmarked) [AI, [5-(2-Methoxy-pyridin-3-yl)-1,2,3,4-tetrahydro-naphthalen-2-yl]-dimethyl-amine] it was 61.6 ± 5.8 nM; in that of `Cc1nn(C)c(C)c1-c1cccc2c1CC[C@H](N(C)C(C)C)C2` [Example AB, (2S)-Isopropyl-methyl-[5-(1,3,5-trimethyl-1H-pyrazol-4-yl)-1,2,3,4-tetrahydro-naphthalen-2-yl]-amine], 644 ± 63.5 nM.

Regarding `Cc1nn(C)c(C)c1-c1cccc2c1CC[C@@H](N(C)C)C2` [Example J, (2R)-Dimethyl-[5-(1,3,5-trimethyl-1H-pyrazol-4-yl)-1,2,3,4-tetrahydro-naphthalen-2-yl]-amine dihydrochloride], the IC50 worked out at 178 nM.

On to `Cc1n[nH]c(C)c1-c1cccc2c1CC[C@H](N(C)C)C2` [Example L, (2S)-[5-(3,5-Dimethyl-1H-pyrazol-4-yl)-1,2,3,4-tetrahydro-naphthalen-2-yl]-dimethyl-amine dihydrochloride], for which the IC50 was 18.4 ± 2.5 nM. For the compound `CCN(CC)C1CCc2c(cccc2-c2c(C)nn(C)c2C)C1` (centres unmarked) [Example S, Diethyl-[5-(1,3,5-trimethyl-1H-pyrazol-4-yl)-1,2,3,4-tetrahydro-naphthalen-2-yl]-amine], the Ki was found to be 130 nM. As to `Cc1nn(C)c(C)c1-c1cccc2c1CCC(N1CCCC1)C2` (centres unmarked) [O, 1,3,5-Trimethyl-4-(6-pyrrolidin-1-yl-5,6,7,8-tetrahydro-naphthalen-1-yl)-1H-pyrazole], affinity was put at a Ki of 96.3 ± 2 nM.

With `CCCN(C)C1CCc2c(cccc2-c2c(C)nn(C)c2C)C1` (centres unmarked) [R, Methyl-propyl-[5-(1,3,5-trimethyl-1H-pyrazol-4-yl)-1,2,3,4-tetrahydro-naphthalen-2-yl]-amine], the Ki was 9.1 ± 1.5 nM. Same read-out and setting: the figure for `CCN(C)C1CCc2c(cccc2-c2c(C)nn(C)c2C)C1` (centres unmarked) [T, Ethyl-methyl-[5-(1,3,5-trimethyl-1H-pyrazol-4-yl)-1,2,3,4-tetrahydro-naphthalen-2-yl]-amine] is 10.3 ± 0.4 nM.
